Tested on: NOMO1
Assay: cell viability relative to DMSO control; higher = less cytotoxic
Settings: 48 h
Procedure, shortened: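 Library compounds in DMSO were pin-dosed in an 11-point threefold series (47 μM to 0.79 nM) onto leukemia cells in 1536-well plates (5 μl). Plates held 500 cells/well of NOMO1 or SEM or 1000 cells/well of P12-Ichikawa, each adapted for at least four passages in each medium. Luminescence was read with CellTiter-Glo One after 48 h at 37°C. Viability means the per-plate percentage relative to DMSO wells, using cell-free wells as background.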

[1] = HPLM + 10% dialyzed FBS, 0.000781 µM
[2] = HPLM + 10% dialyzed FBS, 0.00234 µM
[3] = HPLM + 10% dialyzed FBS, 0.00702 µM
[4] = HPLM + 10% dialyzed FBS, 0.0211 µM
[5] = HPLM + 10% dialyzed FBS, 0.0632 µM
[6] = HPLM + 10% dialyzed FBS, 0.19 µM
[7] = HPLM + 10% dialyzed FBS, 0.569 µM
[8] = HPLM + 10% dialyzed FBS, 1.71 µM
[9] = HPLM + 10% dialyzed FBS, 5.12 µM
[10] = HPLM + 10% dialyzed FBS, 15.4 µM
[11] = HPLM + 10% dialyzed FBS, 46.1 µM
[12] = RPMI 5 mM glucose + 10% FBS, 0.000781 µM
[13] = RPMI 5 mM glucose + 10% FBS, 0.00234 µM
[14] = RPMI 5 mM glucose + 10% FBS, 0.00702 µM
[15] = RPMI 5 mM glucose + 10% FBS, 0.0211 µM
[16] = RPMI 5 mM glucose + 10% FBS, 0.0632 µM
[17] = RPMI 5 mM glucose + 10% FBS, 0.19 µM
[18] = RPMI 5 mM glucose + 10% FBS, 0.569 µM
[19] = RPMI 5 mM glucose + 10% FBS, 1.71 µM
[20] = RPMI 5 mM glucose + 10% FBS, 5.12 µM
[21] = RPMI 5 mM glucose + 10% FBS, 15.4 µM
[22] = RPMI 5 mM glucose + 10% FBS, 46.1 µM
[23] = RPMI 5 mM glucose + 10% dialyzed FBS, 0.000781 µM
[24] = RPMI 5 mM glucose + 10% dialyzed FBS, 0.00234 µM
[25] = RPMI 5 mM glucose + 10% dialyzed FBS, 0.00702 µM
[26] = RPMI 5 mM glucose + 10% dialyzed FBS, 0.0211 µM
[27] = RPMI 5 mM glucose + 10% dialyzed FBS, 0.0632 µM
[28] = RPMI 5 mM glucose + 10% dialyzed FBS, 0.19 µM
[29] = RPMI 5 mM glucose + 10% dialyzed FBS, 0.569 µM
[30] = RPMI 5 mM glucose + 10% dialyzed FBS, 1.71 µM
[31] = RPMI 5 mM glucose + 10% dialyzed FBS, 5.12 µM
[32] = RPMI 5 mM glucose + 10% dialyzed FBS, 15.4 µM
[33] = RPMI 5 mM glucose + 10% dialyzed FBS, 46.1 µM

Structure (SMILES) | cell viability [1] | cell viability [2] | cell viability [3] | cell viability [4] | cell viability [5] | cell viability [6] | cell viability [7] | cell viability [8] | cell viability [9] | cell viability [10] | cell viability [11] | cell viability [12] | cell viability [13] | cell viability [14] | cell viability [15] | cell viability [16] | cell viability [17] | cell viability [18] | cell viability [19] | cell viability [20] | cell viability [21] | cell viability [22] | cell viability [23] | cell viability [24] | cell viability [25] | cell viability [26] | cell viability [27] | cell viability [28] | cell viability [29] | cell viability [30] | cell viability [31] | cell viability [32] | cell viability [33]
COc1cc2ncnc(Nc3cccc(Br)c3)c2cc1OC | 90.4% | 98.3% | 101% | 98.9% | 109% | 120% | 108% | 118% | 98.2% | 94.5% | 86.1% | 98% | 95.9% | 106% | 110% | 109% | 108% | 110% | 111% | 106% | 112% | 117% | 80.8% | 90.6% | 98.6% | 97.4% | 103% | 103% | 102% | 112% | 102% | 102% | 101%
NC(=O)Nc1cc(-c2ccc(CN3CCOCC3)cc2)sc1C(N)=O | 122% | 112% | 121% | 132% | 113% | 68.3% | 71.7% | 91.5% | 84.6% | 74.9% | 48.4% | 100% | 113% | 126% | 101% | 97.6% | 50% | 50.8% | 45.9% | 52.1% | 58.5% | 49.6% | 107% | 99.3% | 108% | 108% | 101% | 55.5% | 46.2% | 47.8% | 56% | 58.3% | 37.2%
NCC(=O)Nc1ccc(-n2nc(C(F)(F)F)cc2-c2ccc3c(ccc4ccccc43)c2)cc1 | 129% | 123% | 123% | 137% | 134% | 124% | 138% | 147% | 131% | 108% | 78.1% |  |  |  |  |  |  |  |  |  |  |  |  |  |  |  |  |  |  |  |  |  | 
CNCC(O)C(O)C(O)C(O)CO.O=C(O)c1ccc(-c2cc3cccnc3c(-c3ccc4nonc4c3)n2)cc1 | 105% | 110% | 115% | 111% | 121% | 126% | 112% | 122% | 112% | 110% | 76.7% | 118% | 119% | 119% | 118% | 115% | 112% | 125% | 106% | 117% | 119% | 102% | 99% | 105% | 124% | 120% | 114% | 111% | 127% | 111% | 111% | 118% | 74.4%
Oc1cc(O)cc(/C=C/c2ccc(O)c(O)c2)c1 | 97.9% | 101% | 99.3% | 99.4% | 110% | 104% | 97.4% | 101% | 100% | 56% | 45.4% | 89.7% | 90.5% | 94% | 85.6% | 91.9% | 85.7% | 97.1% | 88.4% | 86.9% | 72.3% | 70.8% | 81.6% | 99.6% | 92.3% | 88.8% | 103% | 98.4% | 94.9% | 93.5% | 79.3% | 84.8% | 72.8%
O=C1N\2CCC3=C([NH]C4=C3C=CC=C4)C2=N/C5=CC=CC=C15 | 111% | 122% | 130% | 134% | 155% | 147% | 130% | 129% | 155% | 130% | 112% | 144% | 124% | 125% | 128% | 132% | 124% | 169% | 136% | 139% | 140% | 131% | 115% | 121% | 129% | 130% | 130% | 124% | 122% | 140% | 135% | 141% | 124%
CC1(C)CC(O)CC(C)(C)N1[O] | 100% | 125% | 109% | 115% | 115% | 114% | 125% | 121% | 124% | 129% | 120% | 105% | 122% | 128% | 116% | 128% | 128% | 123% | 118% | 135% | 128% | 127% | 100% | 123% | 121% | 123% | 119% | 119% | 123% | 125% | 120% | 123% | 129%
CN[S+](=O)([O-])CCc1ccc2[nH]cc(C3CCN(C)CC3)c2c1 | 91.2% | 95.9% | 91.3% | 114% | 112% | 107% | 106% | 101% | 98.6% | 108% | 107% | 83% | 84.2% | 91.3% | 86.6% | 99.7% | 89.5% | 87.6% | 92.7% | 102% | 87.8% | 96.4% | 91.5% | 83.4% | 90.3% | 95.4% | 93.3% | 104% | 105% | 96.2% | 102% | 85.3% | 89.3%
